In BindingDB's records for doi:10.1021/jm020112w (Bristol-Myers Squibb, 2002):

The compounds below were run against Dihydroorotate dehydrogenase (Helicobacter pylori) (assay: Inhibition of dihydroorotate dehydrogenase (DHODase) of Helicobacter pylori).

Q: Which Ki does the source give for `Cc1ccc(CNC(=O)c2cc(C(=O)Nc3ccccc3)n(-c3ccc(Cl)cc3)n2)cc1` [1-(4-Chloro-phenyl)-1H-pyrazole-3,5-dicarboxylic acid 3-(4-methyl-benzylamide) 5-phenylamide] here?
A: 32 nM

Q: How did the Ki turn out when `CC(C)CNC(=O)c1cc(C(=O)NCc2ccccc2)nn1-c1ccc(Cl)cc1` [1-(4-Chloro-phenyl)-1H-pyrazole-3,5-dicarboxylic acid 3-benzylamide 5-(isobutyl-amide)] was run?
A: 91 nM

Q: With `NC(=O)c1ccc(NC(=O)c2cc(C(=O)NCc3ccccc3)nn2-c2ccc(Cl)cc2)cc1` [1-(4-Chloro-phenyl)-1H-pyrazole-3,5-dicarboxylic acid 3-benzylamide 5-[(4-carbamoyl-phenyl)-amide]] as the compound, how does the Ki read?
A: 6 nM

Q: With `O=C(NCc1cccnc1)c1cc(C(=O)Nc2ccc(N3CCCCC3)cc2)n(-c2ccc(Cl)cc2)n1` [1-(4-Chloro-phenyl)-1H-pyrazole-3,5-dicarboxylic acid 5-[(4-piperidin-1-yl-phenyl)-amide] 3-[(pyridin-3-ylmethyl)-amide]] as the compound, how does the Ki read?
A: 8 nM

Q: `O=C(NCc1cccnc1)c1cc(C(=O)Nc2ccccc2)n(-c2ccc(Cl)cc2)n1` [1-(4-Chloro-phenyl)-1H-pyrazole-3,5-dicarboxylic acid 5-phenylamide 3-[(pyridin-3-ylmethyl)-amide]] was tested. Which Ki did it give?
A: 4 nM

Q: With `COc1ccc(-n2nc(C(=O)NCC(C)C)cc2C(=O)Nc2ccc(C(=O)N3CCCC3)cc2)cc1` [1-(4-Methoxy-phenyl)-1H-pyrazole-3,5-dicarboxylic acid 3-(isobutyl-amide) 5-{[4-(pyrrolidine-1-carbonyl)-phenyl]-amide}] as the compound, how does the Ki read?
A: 138 nM

Q: How did the Ki turn out when `COc1ccc(-n2nc(C(=O)NC(c3ccccc3)c3ccccc3)cc2C(=O)NCc2ccccc2)cc1` [1-(4-Methoxy-phenyl)-1H-pyrazole-3,5-dicarboxylic acid 3-benzhydryl-amide 5-benzylamide] was run?
A: 2400 nM

Q: For `COc1ccc(-n2nc(C(=O)NCc3ccccc3)cc2C(=O)Nc2ccc(C(=O)N3CCCC3)cc2)cc1` [1-(4-Methoxy-phenyl)-1H-pyrazole-3,5-dicarboxylic acid 3-benzylamide 5-{[4-(pyrrolidine-1-carbonyl)-phenyl]-amide}], which Ki is on record?
A: 26 nM

Q: `COc1ccc(-n2nc(C(=O)NCc3cccnc3)cc2C(=O)Nc2ccccc2)cc1` [1-(4-Methoxy-phenyl)-1H-pyrazole-3,5-dicarboxylic acid 5-phenylamide 3-[(pyridin-3-ylmethyl)-amide]] was tested. Which Ki did it give?
A: 12 nM

Q: How did the Ki turn out when `COc1ccc(-n2nc(C(=O)NCC3CCCO3)cc2C(=O)Nc2ccc(C(=O)N3CCCC3)cc2)cc1` (stereo unspecified) [1-(4-Methoxy-phenyl)-1H-pyrazole-3,5-dicarboxylic acid 5-{[4-(pyrrolidine-1-carbonyl)-phenyl]-amide} 3-[(tetrahydro-furan-2-ylmethyl)-amide]] was run?
A: 331 nM

Q: Which Ki does the source give for `O=C(NCc1ccccc1)c1cc(C(=O)Nc2ccccc2)n(-c2ccc(Cl)cc2)n1` [X1-(4-Chloro-phenyl)-1H-pyrazole-3,5-dicarboxylic acid 3-benzylamide 5-phenylamide] here?
A: 4 nM
